pIC50: −log10 of the molar value. Several values for one entry are separate records, joined by “and”; a condition that tells them apart may be missing. Equal entries are not always repeated.
Tested on: 349418-098-R tumor spheroid viability
Experiment: Anticancer human tumor 349418-098-R patient-derived lung adenocarcinoma cell line growth inhibition
Settings: spheroids with HUVEC and MSC; for viability, T/C: stronger effect = lower value
Summary of the method: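 Complex spheroids of malignant cells with endothelial cells and mesenchymal stem cells; agents alone or combined, from near clinical Cmax (or 10 microM if unknown) down in half-log steps, 0.25% DMSO final.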

[1] = curve of first compound, second compound 1 µM
[2] = curve of first compound, second compound 3.16 µM
[3] = curve of first compound, second compound 10 µM
[4] = curve of first compound, second compound 31.6 µM
[5] = curve of first compound, second compound 100 µM
[6] = second compound 1 µM, first compound 0.0949 µM
[7] = second compound 1 µM, first compound 0.3 µM
[8] = second compound 1 µM, first compound 0.949 µM
[9] = second compound 1 µM, first compound 3 µM
[10] = second compound 3.16 µM, first compound 0.0949 µM
[11] = second compound 3.16 µM, first compound 0.3 µM
[12] = second compound 3.16 µM, first compound 0.949 µM
[13] = second compound 3.16 µM, first compound 3 µM
[14] = second compound 10 µM, first compound 0.0949 µM
[15] = second compound 10 µM, first compound 0.3 µM
[16] = second compound 10 µM, first compound 0.949 µM
[17] = second compound 10 µM, first compound 3 µM
[18] = second compound 31.6 µM, first compound 0.0949 µM
[19] = second compound 31.6 µM, first compound 0.3 µM
[20] = second compound 31.6 µM, first compound 0.949 µM
[21] = second compound 31.6 µM, first compound 3 µM
[22] = second compound 100 µM, first compound 0.0949 µM
[23] = second compound 100 µM, first compound 0.3 µM
[24] = second compound 100 µM, first compound 0.949 µM
[25] = second compound 100 µM, first compound 3 µM
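Also: spheroids exposed to compound for 7 days before measurement.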
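For viability, T/C in this document: percent of vehicle control viability with 100% = DMSO-treated spheroids.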

## O=C(c1cc(Cc2n[nH]c(=O)c3ccccc23)ccc1F)N1CCN(C(=O)C2CC2)CC1 + COc1cc2c(cc1O)CCNC21CSC2c3c(OC(C)=O)c(C)c4c(c3C(COC1=O)N1C(O)C3Cc5cc(C)c(OC)c(O)c5C(C21)N3C)OCO4
Curve of first compound, second compound 30 pM
  pIC50: < 4.52
Curve of first compound, second compound 94.9 pM
  pIC50: < 4.52
Curve of first compound, second compound 0.0003 µM
  pIC50: 5.43
Curve of first compound, second compound 0.000949 µM
  pIC50: > 7.02
Curve of first compound, second compound 0.003 µM
  pIC50: > 7.02
Second compound 30 pM, first compound 0.0949 µM
  viability, T/C: 122%
Second compound 30 pM, first compound 0.3 µM
  viability, T/C: 107%
Second compound 30 pM, first compound 0.949 µM
  viability, T/C: 108%
Second compound 30 pM, first compound 3 µM
  viability, T/C: 111%
Second compound 30 pM, first compound 9.49 µM
  viability, T/C: 107%
Second compound 30 pM, first compound 30 µM
  viability, T/C: 69.6%
Second compound 94.9 pM, first compound 0.0949 µM
  viability, T/C: 104%
Second compound 94.9 pM, first compound 0.3 µM
  viability, T/C: 108%
Second compound 94.9 pM, first compound 0.949 µM
  viability, T/C: 102%
Second compound 94.9 pM, first compound 3 µM
  viability, T/C: 107%
Second compound 94.9 pM, first compound 9.49 µM
  viability, T/C: 98.7%
Second compound 94.9 pM, first compound 30 µM
  viability, T/C: 54.6%
Second compound 0.0003 µM, first compound 0.0949 µM
  viability, T/C: 94.9%
Second compound 0.0003 µM, first compound 0.3 µM
  viability, T/C: 87.4%
Second compound 0.0003 µM, first compound 0.949 µM
  viability, T/C: 79.7%
Second compound 0.0003 µM, first compound 3 µM
  viability, T/C: 58.9%
Second compound 0.0003 µM, first compound 9.49 µM
  viability, T/C: 19.3%
Second compound 0.0003 µM, first compound 30 µM
  viability, T/C: 5.2%
Second compound 0.000949 µM, first compound 0.0949 µM
  viability, T/C: 0.44%
Second compound 0.000949 µM, first compound 0.3 µM
  viability, T/C: 0.4%
Second compound 0.000949 µM, first compound 0.949 µM
  viability, T/C: 0.25%
Second compound 0.000949 µM, first compound 3 µM
  viability, T/C: 0.25%
Second compound 0.000949 µM, first compound 9.49 µM
  viability, T/C: 0.15%
Second compound 0.000949 µM, first compound 30 µM
  viability, T/C: 0.44%
Second compound 0.003 µM, first compound 0.0949 µM
  viability, T/C: 1.64%
Second compound 0.003 µM, first compound 0.3 µM
  viability, T/C: 1.88%
Second compound 0.003 µM, first compound 0.949 µM
  viability, T/C: 1.67%
Second compound 0.003 µM, first compound 3 µM
  viability, T/C: 2.88%
Second compound 0.003 µM, first compound 9.49 µM
  viability, T/C: 3.79%
Second compound 0.003 µM, first compound 30 µM
  viability, T/C: 5.74%

## COc1cc(C)[nH]c(=O)c1CN1CCc2c(Cl)cc(C(OC)C3COC3)c(Cl)c2C1=O (configuration not stated)
Compound 0.0316 µM
  viability, T/C: 113% and 98.1% and 118%
Compound 0.1 µM
  viability, T/C: 115% and 96.7% and 122%
Compound 0.316 µM
  viability, T/C: 108% and 91.9% and 112%
Compound 1 µM
  viability, T/C: 104% and 92% and 112%
Compound 3.16 µM
  viability, T/C: 101% and 79.7% and 118%
Compound 10 µM
  viability, T/C: 96.4% and 83.6% and 103%
Curve of compound
  pIC50: < 5.00

## O=C(c1cc(Cc2n[nH]c(=O)c3ccccc23)ccc1F)N1CCN(C(=O)C2CC2)CC1 + Cn1nnc2c(C(N)=O)ncn2c1=O
[1]
  pIC50: < 4.52
[2]
  pIC50: < 4.52
[3]
  pIC50: 4.63
[4]
  pIC50: 5.14
[5]
  pIC50: 5.74
[6]
  viability, T/C: 98.5%
[7]
  viability, T/C: 98.9%
[8]
  viability, T/C: 103%
[9]
  viability, T/C: 98.7%
Second compound 1 µM, first compound 9.49 µM
  viability, T/C: 79.9%
Second compound 1 µM, first compound 30 µM
  viability, T/C: 57%
[10]
  viability, T/C: 99.5%
[11]
  viability, T/C: 100%
[12]
  viability, T/C: 99%
[13]
  viability, T/C: 99%
Second compound 3.16 µM, first compound 9.49 µM
  viability, T/C: 89.1%
Second compound 3.16 µM, first compound 30 µM
  viability, T/C: 60.3%
[14]
  viability, T/C: 103%
[15]
  viability, T/C: 103%
[16]
  viability, T/C: 102%
[17]
  viability, T/C: 96.8%
Second compound 10 µM, first compound 9.49 µM
  viability, T/C: 81.9%
Second compound 10 µM, first compound 30 µM
  viability, T/C: 40.5%
[18]
  viability, T/C: 102%
[19]
  viability, T/C: 98.5%
[20]
  viability, T/C: 100%
[21]
  viability, T/C: 94.7%
Second compound 31.6 µM, first compound 9.49 µM
  viability, T/C: 36.6%
Second compound 31.6 µM, first compound 30 µM
  viability, T/C: 16%
[22]
  viability, T/C: 96.5%
[23]
  viability, T/C: 98%
[24]
  viability, T/C: 78.2%
[25]
  viability, T/C: 27.9%
Second compound 100 µM, first compound 9.49 µM
  viability, T/C: 10.2%
Second compound 100 µM, first compound 30 µM
  viability, T/C: 9.95%

## Cn1ncnc1[C@H]1c2n[nH]c(=O)c3cc(F)cc(c23)N[C@@H]1c1ccc(F)cc1 + Cn1nnc2c(C(N)=O)ncn2c1=O
[1]
  pIC50: 5.80
[2]
  pIC50: 5.83
[3]
  pIC50: 5.96
[4]
  pIC50: 6.88
[5]
  pIC50: > 8.02
Second compound 1 µM, first compound 0.00949 µM
  viability, T/C: 99%
Second compound 1 µM, first compound 0.03 µM
  viability, T/C: 99.2%
[6]
  viability, T/C: 94.3%
[7]
  viability, T/C: 99.9%
[8]
  viability, T/C: 82.9%
[9]
  viability, T/C: 8.45%
Second compound 3.16 µM, first compound 0.00949 µM
  viability, T/C: 100%
Second compound 3.16 µM, first compound 0.03 µM
  viability, T/C: 99.9%
[10]
  viability, T/C: 97.5%
[11]
  viability, T/C: 95.4%
[12]
  viability, T/C: 77.1%
[13]
  viability, T/C: 6.31%
Second compound 10 µM, first compound 0.00949 µM
  viability, T/C: 104%
Second compound 10 µM, first compound 0.03 µM
  viability, T/C: 98%
[14]
  viability, T/C: 95.1%
[15]
  viability, T/C: 94%
[16]
  viability, T/C: 56.2%
[17]
  viability, T/C: 6.77%
Second compound 31.6 µM, first compound 0.00949 µM
  viability, T/C: 97.7%
Second compound 31.6 µM, first compound 0.03 µM
  viability, T/C: 77.7%
[18]
  viability, T/C: 56.5%
[19]
  viability, T/C: 35.6%
[20]
  viability, T/C: 12.3%
[21]
  viability, T/C: 3.26%
Second compound 100 µM, first compound 0.00949 µM
  viability, T/C: 16.3%
Second compound 100 µM, first compound 0.03 µM
  viability, T/C: 12.1%
[22]
  viability, T/C: 9.69%
[23]
  viability, T/C: 7.58%
[24]
  viability, T/C: 6.59%
[25]
  viability, T/C: 1.86%
